Test results: US20160297851A1, “BROAD SPECTRUM […]” (priority 2012, published 2016)
Like-named read-outs stand apart in the source and are kept apart here.

Legend:
Experiment in all cases: microbe, parasite or virus in culture
[1] = system: lepB(P29S) S. aureus 8325; type: cell-based, Staphylococcus aureus
[2] = system: lepB(P84L) E. coli MG1655; type: cell-based, Escherichia coli
[3] = system: wild type S. epidermidis RP62A; type: cell-based, Staphylococcus epidermidis
[4] = system: lepB(P84L) P. aeruginosa PAO1; type: cell-based, Pseudomonas aeruginosa
[5] = Table 3, P3 position derivatives, unit not given

Row | Compound | fold loss of activity relative to arylomycin C16 [1] | minimal inhibitory concentration (MIC) [1] | fold loss of activity relative to arylomycin C16 [2] [fold] | minimal inhibitory concentration (MIC) [2] | fold loss of activity relative to arylomycin C16 [3] [fold] | minimal inhibitory concentration (MIC) [3] | fold loss of activity relative to arylomycin C16 [4] | minimal inhibitory concentration (MIC) [4] | minimal inhibitory concentration (MIC) [1, 5] | minimal inhibitory concentration (MIC) [2, 5] | minimal inhibitory concentration (MIC) [3, 5] | minimal inhibitory concentration (MIC) [4, 5] | activity in words [2]
1 | CCCCCCCCCCCCCCCC(=O)N(C)[C@H](CO)C(=O)N[C@H](C)C(=O)NCC(=O)N(C)[C@@H]1C(=O)NCC(=O)N[C@H](C(=O)O)Cc2ccc(O)c(c2)-c2cc1ccc2O [Compound 26] | > 16 fold | >64 | 32 | 16 | 32 | 8 | > 16 fold | >64 |  |  |  |  | 
2 | CCCCCCCCCCCCCCCC(=O)N(C)[C@H](CO)C(=O)N[C@H](C)C(=O)NCC(=O)N(C)[C@@H]1C(=O)N[C@@H](CC)C(=O)N[C@H](C(=O)O)Cc2ccc(O)c(c2)-c2cc1ccc2O [Compound 27] |  | 8 |  | 1 |  | 0.5 |  | 4 |  |  |  |  | 
3 | CCCCCCCCCCCCCCCC(=O)N(C)[C@H](CO)C(=O)N[C@H](C)C(=O)NCC(=O)N(C)[C@@H]1C(=O)N[C@@H](CCC)C(=O)N[C@H](C(=O)O)Cc2ccc(O)c(c2)-c2cc1ccc2O [Compound 28] |  |  |  |  |  |  |  |  | 8 | 2 | 1 | 8 | 
4 | CCCCCCCCCCCCCCCC(=O)N(C)[C@H](CO)C(=O)N[C@H](C)C(=O)NCC(=O)N(C)[C@@H]1C(=O)N[C@@H](CCCC)C(=O)N[C@H](C(=O)O)Cc2ccc(O)c(c2)-c2cc1ccc2O [Compound 29] | 32 fold | 16 |  | >128 |  | 4 |  | >128 |  |  |  |  | 
5 | CCCCCCCCCCCCCCCC(=O)N(C)[C@H](CO)C(=O)N[C@H](C)C(=O)NCC(=O)N(C)[C@@H]1C(=O)N[C@@H](CCCCC)C(=O)N[C@H](C(=O)O)Cc2ccc(O)c(c2)-c2cc1ccc2O [Compound 30] | 32 fold |  |  |  |  |  |  |  | 16 | >128 | 4 | >128 | 
6 | CCCCCCCCCCCCCCCC(=O)N(C)[C@H](CO)C(=O)N[C@H](C)C(=O)NCC(=O)N(C)[C@@H]1C(=O)NC(CC(F)(F)F)C(=O)N[C@H](C(=O)O)Cc2ccc(O)c(c2)-c2cc1ccc2O (stereo partly shown) [Compound 33] | at least 16 fold |  | 8 |  | 32 |  | at least 16 fold |  | >64 | 16 | 8 | >64 | 
7 | CCCCCCCCCCCCCCCC(=O)N(C)[C@H](CO)C(=O)N[C@H](C)C(=O)NCC(=O)N(C)[C@@H]1C(=O)N[C@@H](C(C)C)C(=O)N[C@H](C(=O)O)Cc2ccc(O)c(c2)-c2cc1ccc2O [Compound 34] |  |  |  |  |  |  | 4 fold |  | 32 | 4 | 4 | 16 | maintained activity
8 | CCCCCCCCCCCCCCCC(=O)N(C)[C@H](CO)C(=O)N[C@H](C)C(=O)NCC(=O)N(C)[C@@H]1C(=O)N[C@@H](CC(C)C)C(=O)N[C@H](C(=O)O)Cc2ccc(O)c(c2)-c2cc1ccc2O [Compound 35] |  | 32 |  | 4 |  | 2 | > 16 fold | >64 |  |  |  |  | maintained activity
